Measurements reported in US20040106644A1, “Composition for treatment of night sight problems(halos, comas and glare) after refractive surgery, intra ocular lens implant after lensectomy or intraocular implant in phakic patients comprising aceclidine employed at low concentrations” (priority 2001, published 2004).

Experiments:
[1] = system: patients who underwent refractive surgery; experiment: double-masked randomized clinical trial on night sight problems (halos, coma, glare) after refractive surgery; assay type: in vivo, human
Procedure: A double-masked randomized clinical trial with 14 patients (27 eyes) has been organized by dividing the patients in three different groups: 8 patients were treated with placebo, 10 patients were treated with a first ophthalmic composition (I dilution), 9 patients were treated with a second ophthalmic composition (II dilution).
The patients belonging to this trial had to go through an ophthalmic examination: of the haze grading and of natural and corrected visual acuity, intra ocular pressure (IOP), pupillometry in mesopic conditions with split lamp and examination of corneal maps. The anamnestic data about the surgical operation were collected: the refractive surgery technique employed (PRK/LASIK), the date of the surgical operation, data about the corrected optical zone and the ametropy kind. The night sight problems had to be stable for at least three months after the surgical operation for the patient to be included in the trial.
The patients had to identify the image they perceived before and during the pharmacological treatment, with follow-up examinations fixed every 15-30 days. At the end of the clinical trial the patients had to provide information about the efficacy and duration (in terms of hours) of the treatment, onset time of the effect, changes of the visual capabilities and side effects, if any.
The ophthalmic compositions were prepared according to the following procedure:
I dilution, 4 IU of aceclidine 2% were diluted in 5 mL of hyaluronic acid (0.200 g/100 mL)
II dilution, 8 IU of aceclidine 2% were diluted in 5 mL of hyaluronic acid (0.200 g/100 mL)
Placebo consisted in 5 mL of hyaluronic acid (0.200 g/100 mL).
The three ophthalmic compositions (I dilution, II dilution and placebo) were administered to the 14 patients belonging to the clinical trial in a blind way.

healthy people = experiment: pupillary diameter after instillation in healthy people; assay type: in vivo, human; conditions: ophthalmic composition with aceclidine in very low concentrations, for four to six hours (summary statement)
Procedure: The two ophthalmic compositions, I and II dilution, were administered firstly to a group of healthy people: one eye was treated with the I dilution composition (0.016%), the second eye with the II dilution composition (0.032%), measuring the pupillary diameter in the same light conditions at 30 minutes, 1-2-3-4-5-6 hours after the first instillation.

[2] = patients treated with refractive surgery, aceclidine in very low concentrations (summary statement)

CC(=O)OC1CN2CCC1CC2 (stereo not drawn) [aceclidine, 3-acetoxyquinuclidine]
side effects in the effective concentration range ([1]; aceclidine 0.016% to 0.040% of total weight): no relevant side effects are detectable
duration of action after instillation ([1]; aceclidine 0.016% to 0.040%, instilled 10-20 minutes before need (summary statement)): 4 to 6 h
duration of light, transitory conjunctival hyperemia [1, 2]: 5 to 10 min
headache or sight reduction [1, 2]: no headache or sight reduction
improvement of halos, coma and glare [1, 2]: statistically significant improvement
pupil diameter reduction (healthy people): 2-3 mm
